The results in this text go back to patent US9353140B2, “BQC-G, a tumor-selective anti-cancer prodrug” (priority 2009, dated 2016).

For one series, the target named is E. coli β-glucuronidase (Escherichia coli, UniProt P05804). The following applies: for Kcat / Km: enzymatic hydrolysis by E. coli β-glucuronidase.
Series [1] concerns CL1-5 human lung adenocarcinoma cells. In words: In vitro cytotoxicity (3H-thymidine incorporation), CL1-5. In kind it is cell-based. Here is the method:
CL1-5 cells were exposed to the indicated concentrations of drugs with or without the addition of human serum albumin to 40 mg/ml. […] Bars show the SD.
(§1) The cancer cell lines were from ATCC except for CL1-5 human lung adenocarcinoma which was generous gift from Dr. PC Yang and EJ human bladder carcinoma cells. See Yang, P. C. et al., Characterization of the mucin differentiation in human lung adenocarcinoma cell lines. American journal of respiratory cell and molecular biology 1992, 7, 161-171; Marshall, C. J. et al., Markers of neoplastic transformation in epithelial cell lines derived from human carcinomas. J Natl Cancer Inst 1977, 58, 1743-51.
(§2) 5000-10000 cells/well in 96 well plate were exposed to graded concentration of the compounds for 48 h in the absence or presence of 40 mg/ml HSA. E. coli β-glucuronidase (1 μg/well) was added with BCC-G in some experiments. The cells were washed twice with PBS and incubated in fresh medium for 24 h before the cells were pulsed with 1 μC/well of ^3H-thimidine for 16 h. Cellular radioactivity in harvested cells was counted on a Topcount scintillation counter and IC50 values were calculated by fitting the data to a sigmoidal dose/response equation.

The next series can be described thus: Water solubility. In kind it is physicochemical. Here is the method:
[…] Mixtures were centrifuged for 40 min at 20,000 g at room temperature. A sample from the water layer was analyzed by HPLC and quantified using standard curves generated with pure BQC and BQC-G.

Series [2] can be described thus: Octanol/water partition coefficient. The class given is physicochemical. The following applies: for Po/w (octanol/water partition coefficient): Buffer pH 4.5. Here is the method: Octanol/Water Partition Coefficient
[…] One μg of either BQC or BQC-G was added to a mixture of 250 μl octanol and 250 μl of one of the three water based pre-equilibrated solvents. After mixing for 24 h at RT, the samples were centrifuged 20 min at 10,000×g. Samples of the octanol and water layers were analyzed by HPLC.

A further series relates to LS174T. In words: In vitro cytotoxicity (3H-thymidine incorporation), LS174T. In kind it is cell-based. Here is the method:
as §2
On the technique in general: Dividing cells build labelled thymidine or BrdU into new DNA.

For a further series, the system named is CaSki. In words: In vitro cytotoxicity (3H-thymidine incorporation), CaSki. The class given is cell-based. Here is the method: as §2
The subject of series [3] is EJ human bladder carcinoma cells. The experiment in a line: In vitro cytotoxicity (3H-thymidine incorporation), EJ. In kind it is cell-based.
Excerpt: as §1, §2

The next series relates to other cancer cell lines. The experiment in a line: In vitro cytotoxicity, other cancer cell lines. In kind it is cell-based. Here is the method: as §2
Series [4] is described as follows: Stability in blood (human plasma/serum, 37° C., 24 h). In kind it is in vitro ADME. The following applies: 24 h at 37° C. Here is the method: Normal human plasma was spiked with BQC-G to 5 μM. The mixture was incubated 24 h at 37° C. during which time samples were periodically removed and analyzed by SPE-HPLC.
A further series addresses T1, human β-glucuronidase (Homo sapiens, UniProt P08236).
T1 sequence (P08236 23-651): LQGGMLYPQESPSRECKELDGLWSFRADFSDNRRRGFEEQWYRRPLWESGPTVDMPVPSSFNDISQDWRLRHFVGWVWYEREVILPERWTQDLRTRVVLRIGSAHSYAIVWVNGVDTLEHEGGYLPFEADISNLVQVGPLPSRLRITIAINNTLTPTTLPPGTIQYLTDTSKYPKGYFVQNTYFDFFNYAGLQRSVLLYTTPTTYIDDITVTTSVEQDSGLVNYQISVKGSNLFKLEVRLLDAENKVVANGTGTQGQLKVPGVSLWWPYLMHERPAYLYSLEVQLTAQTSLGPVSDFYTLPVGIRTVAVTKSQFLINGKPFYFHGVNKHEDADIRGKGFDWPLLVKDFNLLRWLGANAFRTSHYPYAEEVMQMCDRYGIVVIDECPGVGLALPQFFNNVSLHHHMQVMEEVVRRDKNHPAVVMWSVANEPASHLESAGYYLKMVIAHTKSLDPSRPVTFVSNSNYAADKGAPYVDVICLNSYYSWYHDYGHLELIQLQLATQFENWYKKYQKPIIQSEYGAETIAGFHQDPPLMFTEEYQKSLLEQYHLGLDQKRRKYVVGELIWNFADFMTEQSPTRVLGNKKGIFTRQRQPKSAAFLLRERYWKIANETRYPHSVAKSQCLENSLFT
In words: Hydrolysis of BQC-G by human β-glucuronidase. In kind it is biochemical. The following applies: low concentrations of human β-glucuronidase. An excerpt: Hydrolysis of BQC-G by β-glucuronidase

Where [5] appears, read: Homo sapiens, CL1-5, CL1-5, +HSA (40 mg/ml).
Setting [6] is: Homo sapiens, CL1-5, CL1-5, −HSA.

≈ marks a conversion by molar mass, not a printed value. Where “and” joins values, the source holds several entries; their conditions need not be identical. Equal values may be shown once. Read-outs that look alike come from different tables or passages of the source.

Sequence of E. coli β-glucuronidase (P05804 whole entry): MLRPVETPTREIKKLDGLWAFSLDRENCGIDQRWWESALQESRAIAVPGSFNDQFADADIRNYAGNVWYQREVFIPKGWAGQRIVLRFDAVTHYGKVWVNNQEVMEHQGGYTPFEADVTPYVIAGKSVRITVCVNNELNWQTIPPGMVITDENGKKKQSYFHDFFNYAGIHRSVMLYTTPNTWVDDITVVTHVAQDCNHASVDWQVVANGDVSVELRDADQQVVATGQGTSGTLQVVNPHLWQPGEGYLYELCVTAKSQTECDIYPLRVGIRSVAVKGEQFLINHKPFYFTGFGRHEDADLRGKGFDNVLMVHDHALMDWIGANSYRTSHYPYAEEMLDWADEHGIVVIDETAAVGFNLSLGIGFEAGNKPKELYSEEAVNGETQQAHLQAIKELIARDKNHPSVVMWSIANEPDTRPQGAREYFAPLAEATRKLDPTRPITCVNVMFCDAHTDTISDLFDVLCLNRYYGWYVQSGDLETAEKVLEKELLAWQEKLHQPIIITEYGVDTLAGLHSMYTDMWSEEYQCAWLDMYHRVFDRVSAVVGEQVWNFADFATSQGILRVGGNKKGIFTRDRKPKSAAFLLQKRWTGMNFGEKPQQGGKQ

For `Cc1cc(=O)oc2cc(O[C@@H]3O[C@H](C(=O)O)[C@@H](O)[C@H](O)[C@H]3O)ccc12` [4-MUG, 4-methylumbelliferyl-β-D-glucuronide], at E. coli β-glucuronidase, the Kcat is 22.2 s⁻¹ and the Km (in general, the concentration of substrate that gives half-maximal velocity) was found to be 80.2 ± 12.4 µM.
For `CC[C@@]1(O)C(=O)OCc2c1cc1n(c2=O)Cc2cc3c(N)cccc3nc2-1` [9AC, 9-amino-camptothecin], the “Cytotoxicity Ratio (IC50 in the presence of HSA to IC50 without HSA)” value in [1] turned out to be 140. Further, in series [1], the “effect of HSA on cytotoxicity” value was “profound decrease in cytotoxicity”. For the same compound, the half-maximal inhibitory concentration (IC50) (commonly the point on the concentration scale where inhibition reaches its midpoint) was found to be 1370 ± 70 nM in [1] (CL1-5, +HSA (40 mg/ml)) and 9.8 ± 0.3 nM in series [1] (CL1-5, −HSA).
In the case of `CC[C@@]1(O)C(=O)OCc2c1cc1n(c2=O)Cc2cc3c(NC(=O)OCc4ccc(O[C@@H]5O[C@H](C(=O)O)[C@@H](O)[C@H](O)[C@H]5O)cc4)cccc3nc2-1` [9ACG, 9-amino-camptothecin-glucuronide], the “Cytotoxicity Ratio (IC50 in the presence of HSA to IC50 without HSA)” value in [1] is on record as over 15. For the same compound, the IC50 in series [1] (CL1-5, +HSA (40 mg/ml)) was over 10000 nM. The same compound had a concentration for half-maximal inhibition (IC50) in [1] (CL1-5, −HSA) of 650 ± 40 nM. Also, at E. coli β-glucuronidase, the Kcat amounted to 8.6 s⁻¹ and the Michaelis-Menten constant (Km) is 30 µM.
As to `CC[C@@]1(O)C(=O)OCc2c1cc1n(c2=O)Cc2c-1nc1ccc(O)c3c1c2CCC3` [BQC, 5,6-dihydro-4H-benzo[de]quinoline-camptothecin], the Solubility (in general, the concentration that dissolves in the medium under given conditions) in “Water solubility” (Buffer pH 4.5) stood at 0.120 µg/mL (≈ 0.297 µM); in the series “Water solubility” (Buffer pH 7.0), 0.200 µg/mL (≈ 0.495 µM); in “Water solubility” (water) it was 0.200 µg/mL (≈ 0.495 µM). For the same compound, the “solubility in water-based buffers” value in “Water solubility” (pH 4.5) worked out at 125 ng/mL (≈ 0.309 µM); in the series “Water solubility” (pH 7.0), 200 ng/mL (≈ 0.495 µM). The “Po/w (octanol/water partition coefficient)” value in [2] turned out to be 1.67. Also, the Po/w in [2] (Buffer pH 7.4) stood at 1.46; in series [2] (water) it was 1.98. The “Cytotoxicity Ratio (IC50 in the presence of HSA to IC50 without HSA)” value in [1] (CL1-5) turned out to be 9.5. The IC50 was 13 nM in series [1] (CL1-5, +HSA (40 mg/ml)); 1.4 nM and 1.37 nM in [1] (CL1-5, −HSA); 1.31 ± 0.03 nM in the series with LS174T; 1.25 ± 0.05 nM in the series with CaSki; 1.78 ± 0.08 nM in series [3]; 1 to 2 nM in the series on other cancer cell lines.
For the compound `CC[C@@]1(O)C(=O)OCc2c1cc1n(c2=O)Cc2c-1nc1ccc(OCc3ccc(O[C@@H]4O[C@H](C(=O)O)[C@@H](O)[C@H](O)[C@H]4O)c([N+](=O)[O-])c3)c3c1c2CCC3` [BQC-G], the Solubility in the series “Water solubility” (Buffer pH 7.0) amounted to 775 µg/mL (≈ 1060 µM). For the same compound, the “solubility in water based buffers” value in the series “Water solubility” (pH 7.0) is 775 µg/mL (≈ 1060 µM). In the series “Water solubility” (versus BQC), the “solubility in water based buffers relative to BQC” value is recorded as “about 4000 fold”. Further, in series [2], the “Po/w (octanol/water partition coefficient)” value is given as −0.44. In addition, the Po/w is recorded as −1.01 in series [2] (Buffer pH 7.4) and −0.44 in series [2] (water). The octanol/water partition coefficient entry in [2] (pH not stated (discussion)) is listed as “about −1”. In series [4], the “stability in human serum” value is “only trace amounts of BQC detected”. The “hydrolysis to the parental aglycone BQC” value at human β-glucuronidase and at E. coli β-glucuronidase (low concentrations of E. coli β-glucuronidase) was “completely hydrolyzed” in each case. For the same compound, the “Cytotoxicity Ratio (IC50 in the presence of HSA to IC50 without HSA)” value in [1] (CL1-5) is reported as 18.4. Moreover, the IC50 was 1080 nM in series [1] (CL1-5, +HSA (40 mg/ml)); 13 nM in [1] (CL1-5, in the presence of HSA, hydrolyzed by β-glucuronidase); 1.3 nM in series [1] (CL1-5, without HSA, β-glucuronidase added); 58 nM and 58.7 nM in [1] (CL1-5, −HSA); 24.6 ± 2.8 nM with LS174T; 31.2 ± 0.5 nM in the series on CaSki. This compound had an IC50 in [3] of 44.8 ± 0.7 nM. The same compound registered a Kcat at E. coli β-glucuronidase of 45.1 s⁻¹. Moreover, the Km at E. coli β-glucuronidase was 4.6 µM.
On to `CC[C@@]1(O)C(=O)OCc2c1cc1n(c2=O)Cc2cc3ccccc3nc2-1` [CPT, camptothecin], for which the “Cytotoxicity Ratio (IC50 in the presence of HSA to IC50 without HSA)” value in series [1] (CL1-5) is listed as over 146. Moreover, in [1] (CL1-5, in the presence of HSA), the “effect of HSA on cytotoxicity” value is reported as “drastically reduced”. Besides, the IC50 in series [1] (setting [5]) is over 3000 nM; in series [1] (setting [6]), 20.5 ± 1.3 nM; in the series on LS174T (Homo sapiens), 9.7 ± 0.8 nM; with CaSki (Homo sapiens, Ca-Ski), 20 ± 2.1 nM; in series [3] (Homo sapiens) it was 21 ± 3.9 nM.
As to `O=C(O)[C@H]1O[C@@H](Oc2ccc([N+](=O)[O-])cc2)[C@H](O)[C@@H](O)[C@@H]1O` [PNPG, p-nitrophenol β-D-glucuronide], at E. coli β-glucuronidase, the Kcat stood at 173 s⁻¹ and the Km was determined as 490 ± 84 µM.
Regarding `CCc1c2c(nc3ccc(O)cc13)-c1cc3c(c(=O)n1C2)COC(=O)[C@]3(O)CC` [SN-38], the “Cytotoxicity Ratio (IC50 in the presence of HSA to IC50 without HSA)” value in series [1] was 9.1. In addition, the IC50 in series [1] (CL1-5, +HSA (40 mg/ml)) came out at 47.9 ± 1.9 nM; in [1] (CL1-5, −HSA), 5.25 ± 0.08 nM.
Regarding `CC[C@@]1(O)C(=O)OCc2c1cc1n(c2=O)Cc2cc3c(CN(C)C)c(O)ccc3nc2-1` [topotecan], the IC50 in series [1] (setting [5]) worked out at 28.4 ± 0.7 nM; in [1] (setting [6]) it was 27.8 ± 0.3 nM.
